Measurements taken from patent US10080751B2, “Systems and methods for treating bacterial infection” (priority 2016, dated 2018).

Legend:
[1] = system: nosocomial pneumonia suspected or confirmed to be caused by Gram-positive pathogens; settings: intent-to-treat, test of cure visit; vancomycin 1 g IV q12h; cited from earlier work
[2] = system: S. aureus strain AH1252; assay: Neutropenic rat lung infection model; format: in vivo; settings: iclaprim 80 mg/kg
Protocol: S. aureus strain AH1252, a thymidine knockout of the MRSA wild type AW6 strain, was utilized for this study. The bacterial strain was diluted in a 2% alginate buffer, which was added dropwise in a ratio of 1:5 into […] to form alginate beads. The alginate beads reduce the efficacy of bacterial clearance similar to that seen in the cystic fibrosis population. A 5.25×10^4 bacterial inoculum was administered to groups of 9 rats, intratracheally, with prepared alginate bacteria suspensions, under isoflurane anesthesia. […] Twelve hours after the last treatment, rats were euthanized and lungs collected for CFU determination.

[3] = SC/BID 3 days, vancomycin 50 mg/kg

In the case of `CN[C@H](CC(C)C)C(=O)N[C@H]1C(=O)N[C@@H](CC(N)=O)C(=O)N[C@H]2C(=O)N[C@H]3C(=O)N[C@H](C(=O)N[C@H](C(=O)O)c4cc(O)cc(O)c4-c4cc3ccc4O)[C@H](O)c3ccc(c(Cl)c3)Oc3cc2cc(c3O[C@@H]2O[C@H](CO)[C@@H](O)[C@H](O)[C@H]2O[C@H]2C[C@](C)(N)[C@H](O)[C@H](C)O2)Oc2ccc(cc2Cl)[C@H]1O` [Vancomycin], the cure rate [1] is given as 52.2%, the “72 hour lungs (CFU/gram of lung) log10CFU/Lung” value [2, 3] is given as 5.30 log10CFU/Lung and the “Change in CFUs from 2 hr.” value [2, 3] is given as 2.18 log 10 CFU. For the same molecule, the “Survival >60 hrs” value ([2]; SC/BID 3 days, vancomycin 50 mg/kg, 9 rats) was 8/9, the “survival compared to the infection controls” value ([2]; vancomycin 50 mg/kg SC/BID) was “increased survival” and the “Change in CFUs from 72 hr.” value ([2]; vs 72 hr infection controls, vancomycin 50 mg/kg SC/BID) was −3.38 log 10 CFU.
